No end group written: not given here.
T1: vascular endothelial (VE) cadherin (human, UniProt P33151 48-784)
T1 sequence (looked up): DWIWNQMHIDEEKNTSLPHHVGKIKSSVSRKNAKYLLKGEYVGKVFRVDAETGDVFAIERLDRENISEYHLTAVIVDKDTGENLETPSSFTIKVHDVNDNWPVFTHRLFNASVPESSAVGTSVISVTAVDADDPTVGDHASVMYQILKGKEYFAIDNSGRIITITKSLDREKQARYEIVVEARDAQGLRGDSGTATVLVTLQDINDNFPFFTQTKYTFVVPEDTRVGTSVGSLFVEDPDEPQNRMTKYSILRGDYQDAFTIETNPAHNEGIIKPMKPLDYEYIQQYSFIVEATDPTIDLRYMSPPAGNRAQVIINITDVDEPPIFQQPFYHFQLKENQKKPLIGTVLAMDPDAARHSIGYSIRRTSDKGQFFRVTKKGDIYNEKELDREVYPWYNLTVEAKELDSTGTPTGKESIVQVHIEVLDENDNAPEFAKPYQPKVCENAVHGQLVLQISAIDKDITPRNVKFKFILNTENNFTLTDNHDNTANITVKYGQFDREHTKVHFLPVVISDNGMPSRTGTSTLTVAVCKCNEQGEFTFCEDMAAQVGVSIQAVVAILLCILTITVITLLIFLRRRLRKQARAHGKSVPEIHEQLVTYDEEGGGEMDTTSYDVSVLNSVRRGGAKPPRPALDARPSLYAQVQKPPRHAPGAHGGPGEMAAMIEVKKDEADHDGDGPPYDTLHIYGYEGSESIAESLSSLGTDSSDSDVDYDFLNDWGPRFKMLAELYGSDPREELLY


What was measured:
RhoA = assay: thrombin induced RhoA activation in HUVEC culture (Rho pull-down, Western blot); format: cell-based, human; details: 5 U/ml thrombin alone, 5 min
Protocol: The biological effect of the compounds was established in a model thrombin induced RhoA activation in human umbilical vein endothelial cell (HUVEC) culture.
HUVEC are grown to confluence under standard conditions. Before induction of Rho activity HUVEC were starved for 4 h by using IMDM (Gibco) without growth factor and serum supplements. After the starvation period 5 U/ml Thrombin (Calbiochem) or 5 U thrombin plus 50 μg/ml of test compound are added to the starvation medium for 1, 5 and 10 min. Active RhoA was isolated using Rho Assay Reagent from Upstate according to manufactures instructions. Isolates were separated on a 15% polyacrylamid gel and blotted on Nitrocellulose-Membrane (Bio-Rad). RhoA was dedected by using Anti-Rho (-A, -B, -C), clone55 from Upstate (1:500).

[1] = molecular target: T1, vascular endothelial (VE) cadherin; assay: cell-based or functional assay

Molecule | Relative RhoA stimulation compared to unstimulated control (RhoA) | Relative RhoA stimulation compared to unstimulated control [1]
thrombin | 3.8 | –
GHRPLDKKREEAPSLRPAPPPISGG-OH | – | 0.85 fold of unstimulated control
